The target of one data set is hERG (KCNH2) (Homo sapiens, UniProt Q12809). The experiment in a line: Inhibition of human ERG at 10 uM relative to control.
Data set [1] can be described thus: AUC (0 to 6 hrs) in CD1 mouse at 10 mg/kg, po. Type of data set: ADME, organism-based. The arrangement: time < 6 hr, route oral, dose 10 mg/kg. The settings on record: in vivo.
For data set [2], the system named is Mus musculus. Nature of the data set: Inhibition of GRP mRNA expression in Crl:CD1-Foxn1nu mouse xenografted with human NCI-H1417 cells at 5 mg/kg, po QD for 4 days and measured 24 hrs post last dose by qPCR analysis. Type of data set: functional, organism-based. The settings on record: time 5.0 day.
Data set [3] in a line: Toxicity in Crl:CD1-Foxn1nu mouse xenografted with human NCI-H1417 cells assessed as weight gain level at 2.5 to 5 mg/kg, po QD for 65 days relative to control. Type of data set: organism-based. The conditions noted are these: in vivo, 1560 h, dose 2.5-5 mg/kg, time 65 day.
The next data set deals with IMR-90. Nature of the data set: Anti-proliferative activity in human IMR-90 cells incubated for 168 hrs by MTS assay. The settings on record: IMR-90, 168 h. Type of data set: functional, cell-based.
Data set [4] relates to Mus musculus. Nature of the data set: Inhibition of GRP mRNA expression in Crl:CD1-Foxn1nu mouse xenografted with human NCI-H1417 cells at 2.5 mg/kg, po QD for 4 days and measured 24 hrs post last dose by qPCR analysis. Type of data set: functional, organism-based. The conditions noted are these: time 5.0 day.
Data set [5] concerns the target T1, Lysine-specific histone demethylase 2 (Homo sapiens) (UniProt Q8NB78).
T1 sequence (whole entry): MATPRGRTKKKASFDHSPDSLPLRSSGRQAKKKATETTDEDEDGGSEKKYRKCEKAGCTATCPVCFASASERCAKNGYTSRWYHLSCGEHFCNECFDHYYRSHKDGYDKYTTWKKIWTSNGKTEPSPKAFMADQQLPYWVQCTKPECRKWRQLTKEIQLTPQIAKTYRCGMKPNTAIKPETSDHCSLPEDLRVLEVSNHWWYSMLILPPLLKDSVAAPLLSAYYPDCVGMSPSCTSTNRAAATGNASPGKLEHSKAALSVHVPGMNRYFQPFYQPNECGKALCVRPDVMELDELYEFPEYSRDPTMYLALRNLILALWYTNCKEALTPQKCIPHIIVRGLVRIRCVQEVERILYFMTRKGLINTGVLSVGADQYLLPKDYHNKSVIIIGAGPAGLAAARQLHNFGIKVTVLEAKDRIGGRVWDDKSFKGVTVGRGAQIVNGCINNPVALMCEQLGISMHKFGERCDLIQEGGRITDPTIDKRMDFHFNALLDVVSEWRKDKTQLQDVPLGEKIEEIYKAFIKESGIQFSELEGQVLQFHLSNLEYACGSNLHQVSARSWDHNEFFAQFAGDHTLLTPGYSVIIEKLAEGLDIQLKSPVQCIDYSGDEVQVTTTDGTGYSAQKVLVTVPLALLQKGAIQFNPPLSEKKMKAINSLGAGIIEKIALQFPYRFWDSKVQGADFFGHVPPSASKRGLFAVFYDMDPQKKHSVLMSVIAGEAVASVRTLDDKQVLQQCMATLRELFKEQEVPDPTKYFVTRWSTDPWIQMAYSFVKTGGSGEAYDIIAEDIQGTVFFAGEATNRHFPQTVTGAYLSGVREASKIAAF
Nature of the data set: Inhibition of LSD2 (unknown origin) at. The conditions noted are these: dose microM <10.

Data set [6] can be described thus: Toxicity in Crl:CD1-Foxn1nu mouse xenografted with human LXFS615 cells assessed as weight loss at 5 mg/kg, po dosed daily for 30 days relative to control. The conditions noted are these: in vivo, 720 h, time 30 day. Format: organism-based.
Data set [7] in a line: Protein binding in mouse plasma. Format: ADME, cell-free. The conditions noted are these: read-out: PPB (converted).
A short description of data set [8]: Antitumor activity against human LU2514 xenografted in Crl:CD1-Foxn1nu mouse patient-derived xenograft model assessed as inhibition of tumor growth at 10 mg/kg, po QD for 28 days relative to control. The settings on record: 672 h, time 28 day, read-out: TGI. Format: functional.
The subject of a further data set is Kasumi 1. Nature of the data set: Anti-proliferative activity in human Kasumi 1 cells incubated for 168 hrs by MTS assay. Type of data set: functional, cell-based. The conditions noted are these: Kasumi 1, 168 h.
A short description of data set [9]: Antitumor activity against human LU2514 xenografted in Crl:CD1-Foxn1nu mouse patient-derived xenograft model assessed as inhibition of tumor growth at 5 mg/kg, po QD for 28 days relative to control. Type of data set: functional. The settings on record: 672 h, time 28 day, read-out: TGI.
Data set [10] concerns the target T2, Amine oxidase [flavin-containing] B (Homo sapiens, UniProt P27338).
T2 sequence (P27338 whole entry): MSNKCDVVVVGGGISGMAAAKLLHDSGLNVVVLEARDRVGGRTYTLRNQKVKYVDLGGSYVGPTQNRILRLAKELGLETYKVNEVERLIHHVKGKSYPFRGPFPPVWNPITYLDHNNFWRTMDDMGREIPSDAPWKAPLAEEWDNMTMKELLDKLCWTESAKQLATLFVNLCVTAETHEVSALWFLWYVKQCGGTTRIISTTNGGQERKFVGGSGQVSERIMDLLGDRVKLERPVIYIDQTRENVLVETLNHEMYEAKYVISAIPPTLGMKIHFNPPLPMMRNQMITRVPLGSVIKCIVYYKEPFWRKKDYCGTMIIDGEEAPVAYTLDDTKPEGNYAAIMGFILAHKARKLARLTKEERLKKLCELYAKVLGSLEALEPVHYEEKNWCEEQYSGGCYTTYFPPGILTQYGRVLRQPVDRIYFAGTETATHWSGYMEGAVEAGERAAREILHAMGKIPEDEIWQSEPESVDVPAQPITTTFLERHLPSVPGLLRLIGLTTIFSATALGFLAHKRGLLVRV
The experiment in a line: Inhibition of MAOB (unknown origin) at. The settings on record: dose <10 µM.

The nature of data set [11]: Cmax in CD1 mouse at 5 mg/kg, po. Type of data set: ADME, organism-based. The arrangement: route oral, dose 5 mg/kg. The conditions noted are these: in vivo.
Data set [12] is described as follows: Antitumor activity against human LXFS615 xenografted in Crl:CD1-Foxn1nu mouse patient-derived xenograft model assessed as inhibition of tumor growth at 5 mg/kg, po dosed daily for 30 days relative to control. Type of data set: functional. The conditions noted are these: 720 h, time 30 day, read-out: TGI.
Data set [13] in a line: Half life in CD1 mouse at 5 mg/kg, iv. Type of data set: ADME, organism-based. The settings on record: in vivo.
Data set [14] in a line: Clearance in CD1 mouse at 5 mg/kg, iv. Format: ADME, organism-based. The conditions noted are these: in vivo.
Data set [15] can be described thus: Oral bioavailability in CD1 mouse at 5 mg/kg. Type of data set: ADME, organism-based. The settings on record: in vivo.
Data set [16] has as its system NCI-H1417. The experiment in a line: Antitumor activity against human NCI-H1417 cells xenografted in Crl:CD1-Foxn1nu mouse assessed as tumor growth regression level at 5 mg/kg, po QD for 65 days relative to control. The settings on record: time 65 day. Format: functional.
Data set [17] concerns Mus musculus. The experiment in a line: Induction of in-vivo cell differentiation in Crl:CD1-Foxn1nu mouse patient-derived xenograft model xenografted with human LU2514 assessed as increase in apoptotic bodies at 10 mg/kg, po QD for 28 days and measured 15 days post last dose by H and E staining based assay. Format: functional, organism-based. The conditions noted are these: time 43.0 day.

Data set [18] concerns NCI-H1417. The experiment in a line: Antitumor activity against human NCI-H1417 cells xenografted in Crl:CD1-Foxn1nu mouse assessed as tumor growth regression level at 2.5 mg/kg, po QD for 65 days relative to control. Type of data set: functional. The settings on record: time 65 day.
Data set [19] deals with T3, Amine oxidase [flavin-containing] A (Homo sapiens, UniProt P21397).
T3 sequence (P21397 whole entry): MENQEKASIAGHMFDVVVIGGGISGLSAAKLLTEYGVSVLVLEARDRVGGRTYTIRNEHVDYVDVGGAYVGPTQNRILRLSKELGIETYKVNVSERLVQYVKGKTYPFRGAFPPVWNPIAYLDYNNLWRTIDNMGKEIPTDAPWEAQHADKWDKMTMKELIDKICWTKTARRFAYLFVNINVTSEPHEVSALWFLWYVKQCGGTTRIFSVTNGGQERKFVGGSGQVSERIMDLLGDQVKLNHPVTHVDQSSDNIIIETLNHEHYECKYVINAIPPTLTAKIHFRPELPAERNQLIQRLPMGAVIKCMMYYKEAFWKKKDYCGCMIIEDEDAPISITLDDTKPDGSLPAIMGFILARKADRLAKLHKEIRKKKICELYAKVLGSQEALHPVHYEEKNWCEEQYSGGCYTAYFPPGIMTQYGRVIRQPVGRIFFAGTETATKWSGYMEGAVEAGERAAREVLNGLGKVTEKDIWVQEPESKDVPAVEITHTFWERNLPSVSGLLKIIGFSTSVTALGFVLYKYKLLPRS
Nature of the data set: Inhibition of MAOA (unknown origin) at. The settings on record: dose <10 µM.

The nature of data set [20]: AUC (0 to 24 hrs) in CD1 mouse at 5 mg/kg, po. Format: ADME, organism-based. Also noted: time < 24 hr, route oral, dose 5 mg/kg. The conditions noted are these: in vivo.
Data set [21] can be described thus: Volume of distribution at steady state in CD1 mouse at 5 mg/kg, iv. Format: ADME, organism-based. The settings on record: in vivo, read-out: Vdss.
Data set [22] concerns Mus musculus. The experiment in a line: Induction of in-vivo cell differentiation in Crl:CD1-Foxn1nu mouse patient-derived xenograft model xenografted with human LU2514 assessed as reduction in nucleus to cytoplasm ratio at 10 mg/kg, po QD for 28 days and measured 15 days post last dose by H and E staining based assay. The conditions noted are these: time 43.0 day. Type of data set: functional, organism-based.

Data set [23] has as its system Mus musculus. Nature of the data set: Induction of in-vivo cell differentiation in Crl:CD1-Foxn1nu mouse patient-derived xenograft model xenografted with human LU2514 assessed as loosening of cellular structure at 10 mg/kg, po QD for 28 days and measured 15 days post last dose by H and E staining based assay. Format: functional, organism-based. The settings on record: time 43.0 day.

Here are results for 7 compounds from ChEMBL document CHEMBL4699559, “Discovery of CC-90011: A Potent and Selective Reversible Inhibitor of Lysine Specific Demethylase 1 (LSD1)” (J Med Chem, 2020).

Each structure is given as a SMILES string. Calls of active or inactive are those of the source. The rule behind the calls is not given here. A value given as a limit tells only on which side of the number the result lay.

Sequence of hERG (KCNH2) (Q12809 whole entry): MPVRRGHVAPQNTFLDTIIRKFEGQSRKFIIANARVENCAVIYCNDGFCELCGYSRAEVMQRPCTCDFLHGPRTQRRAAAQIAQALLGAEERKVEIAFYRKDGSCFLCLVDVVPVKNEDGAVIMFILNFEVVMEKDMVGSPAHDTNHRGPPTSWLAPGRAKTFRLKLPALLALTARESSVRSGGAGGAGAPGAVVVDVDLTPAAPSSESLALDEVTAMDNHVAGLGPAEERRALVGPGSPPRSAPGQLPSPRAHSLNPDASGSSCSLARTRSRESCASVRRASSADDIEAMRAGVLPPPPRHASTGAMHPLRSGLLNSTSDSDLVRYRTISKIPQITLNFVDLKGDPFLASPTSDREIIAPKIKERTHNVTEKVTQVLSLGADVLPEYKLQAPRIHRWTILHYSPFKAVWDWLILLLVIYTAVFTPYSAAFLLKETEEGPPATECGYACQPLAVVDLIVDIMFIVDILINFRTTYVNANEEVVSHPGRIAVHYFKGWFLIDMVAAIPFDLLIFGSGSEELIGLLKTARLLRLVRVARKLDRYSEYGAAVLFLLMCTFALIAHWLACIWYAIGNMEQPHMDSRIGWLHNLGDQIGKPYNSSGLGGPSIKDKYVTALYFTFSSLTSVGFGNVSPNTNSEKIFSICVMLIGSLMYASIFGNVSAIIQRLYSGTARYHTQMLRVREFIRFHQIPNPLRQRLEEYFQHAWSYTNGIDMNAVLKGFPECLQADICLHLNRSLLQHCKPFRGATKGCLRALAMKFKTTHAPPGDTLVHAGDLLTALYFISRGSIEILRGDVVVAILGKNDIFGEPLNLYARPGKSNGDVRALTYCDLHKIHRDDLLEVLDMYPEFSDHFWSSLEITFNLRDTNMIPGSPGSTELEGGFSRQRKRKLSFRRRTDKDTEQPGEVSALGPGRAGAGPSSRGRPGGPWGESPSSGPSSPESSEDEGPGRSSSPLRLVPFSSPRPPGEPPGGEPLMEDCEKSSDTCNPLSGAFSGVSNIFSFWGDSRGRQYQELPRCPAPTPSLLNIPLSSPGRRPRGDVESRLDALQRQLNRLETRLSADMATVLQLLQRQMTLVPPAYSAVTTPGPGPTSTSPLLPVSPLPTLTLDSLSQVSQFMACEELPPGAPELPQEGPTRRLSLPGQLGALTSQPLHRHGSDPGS

At hERG (KCNH2), `COc1ccc(-c2c(-c3ccc(C#N)cc3)nc(N3CCC(N)CC3)n(C)c2=O)cc1` gave an inhibition at 10 µM of 67%. For the same compound, in data set [1], the area under the curve AUC(0-t) at 6 h came to 6.1 µM·h.

Compound `Cc1ccc(-c2cnc(N3CC[C@@H]4NCC[C@@H]4C3)nc2-c2ccc(C#N)cc2)cc1` displayed an inhibition at 10 µM on hERG (KCNH2) of 95%. The same compound yielded an AUC(0-t) at 6 h in [1] of 14.5 µM·h.

`Cc1ccc(-c2c(-c3ccc(C#N)cc3)nc(N3CCC(N)CC3)n(C)c2=O)cc1` had an inhibition at 10 µM on hERG (KCNH2) of 83%. The compound further gave an AUC(0-t) at 6 h in data set [1] of 10.5 µM·h.

Consider `Cc1ccc(-c2c(-c3ccc(C#N)cc3)nc(N3CCC(N)CC3)c(=O)n2C)cc1`, for which, at hERG (KCNH2), the inhibition at 10 µM was 95%. Also, the AUC(0-t) at 6 h in [1] worked out at 7.3 µM·h.

As for `COc1ccc(-c2c(-c3ccc(C#N)cc3)nc(N3CCC(N)CC3)n(C)c2=O)cc1F`, the inhibition at 10 µM on hERG (KCNH2) was found to be 48%. Also, the AUC(0-t) at 6 h in data set [1] is 3 µM·h.

For the compound `Cc1ccc(-c2cnc(C[C@H]3CCNC3)nc2-c2ccc(C#N)cc2)cc1`, the inhibition at 10 µM on hERG (KCNH2) was found to be 91%. In addition, the AUC(0-t) at 6 h in data set [1] stood at 1 µM·h.

`COc1ccc(-c2c(-c3ccc(C#N)c(F)c3)nc(N3CCC(N)CC3)n(C)c2=O)cc1F.O=S(=O)(O)c1ccccc1` [PULRODEMSTAT BESILATE]: the inhibition result in the data set with Mus musculus [2] and with Mus musculus [4] was “Active” throughout. The Activity result in data set [3] is given as “<= 7%”; in data set [6], below 1%; in the data set with NCI-H1417 [16], 178%; in the data set with NCI-H1417 [18] it was 159%. Further, the values for the EC50 with IMR-90 and in the data set on Kasumi 1 were above 10000 nM and 2 nM, respectively. In [5], the inhibition entry was “inactive”. For the same compound, in data set [7], the fraction unbound was 0.08. Moreover, in data set [8], the inhibition in vivo at 10 mg/kg is 56%. The inhibition in vivo at 5 mg/kg in data set [9] is 39%; in data set [12] it was 78%. For the same compound, the “inhibition (INH)” value in [10] and in data set [19] was “Not Active” each time. In addition, the highest level in [11] (Cmax) was 360 nM. For the same compound, the half-life in data set [13] was 2 h. In [14], the clearance is 32.4 mL/min/kg. Moreover, the inhibition at 10 µM at hERG (KCNH2) came to 59%. Also, in data set [15], the bioavailability was 32%. In [1], the AUC(0-t) at 6 h was 2.6 µM·h. For the same compound, the outcome in the data set on Mus musculus [17], in the data set on Mus musculus [22] and with Mus musculus [23] was Active. In data set [20], this compound came in with an AUC(0-t) at 24 h of 1.8 µM·h. Moreover, in data set [21], the Vd came to 7.5 L/kg.
